Tests used:
[1] = system: colon gene expression; assay: RNA-Seq of colonic tissue of germ-free mice treated with 50 mg/kg/d N-methylserotonin; type: in vivo, germ-free C57BL/6J mice; conditions: for log2 fold-change: colon
[2] = N-methylserotonin degradation test in bacterial monocultures; conditions: 5 ng/ml added to monocultures of the 14 strains, 72-hour period
Description: Experiments to determine whether N-methylserotonin is synthesized de novo by B. ovatus were carried out in 10 mL TYG with or without supplementation with tryptophan, tryptamine, serotonin, dimethylserotonin, trimethylserotonin, methyltryptamine, or S-adenosyl methionine (final concentrations; 5 mg/mL; all from Sigma). Experiments seeking to test the capacity of all 14 bacterial strains introduced into mice to degrade N-methylserotonin in vitro were carried out using 10 mL TYG and 50 ng N-methylserotonin, with samples collected every 24 hours. Assays were performed in triplicate for each condition, using the protocol described herein.
Several other experiments were performed to characterize in vitro N-methylserotonin liberation by members of the 14 strain consortia.

Which “colonic expression of known (Htr7, Htr2A) or related (Htr3, Htr4, Htr5 and Htr6) receptors” value ([1]; 50 mg/kg/d vs untreated) does the source give for CNCCc1c[nH]c2ccc(O)cc12 [N-methylserotonin] here?
Its value is “did not reveal any statistically significant effects”.

And the “number of genes with statistically significant differences in expression in colonic tissue” value ([1]; 50 mg/kg/d vs untreated, FDR-adjusted p<0.05)?
Its value is “Seven hundred and forty-eight”.

And the log2 fold-change ([1]; gene 6430548M08Rik)?
The log2 fold-change was 0.47.

What about the log2 fold-change ([1]; gene Aass) of the same molecule?
The log2 fold-change was 4.35.

What about the log2 fold-change ([1]; gene Adgrg6) of the same molecule?
The log2 fold-change was 1.06.

And the log2 fold-change ([1]; gene Adgrl1)?
Its log2 fold-change is 0.82.

And the log2 fold-change ([1]; gene Aldh1l2)?
The log2 fold-change was 1.36.

What about the log2 fold-change ([1]; gene Ankrd35) of the same molecule?
Its log2 fold-change is 1.27.

And the log2 fold-change ([1]; gene Anxa9)?
The log2 fold-change was 3.41.

What about the log2 fold-change ([1]; gene Arhgef17) of the same molecule?
Its log2 fold-change is 0.43.

What about the log2 fold-change ([1]; gene Atf5) of the same molecule?
The log2 fold-change was 0.70.

What about the log2 fold-change ([1]; gene Atp6v1c2) of the same molecule?
The log2 fold-change was 5.46.

And the log2 fold-change ([1]; gene Azgp1)?
Its log2 fold-change is 3.05.

And the log2 fold-change ([1]; gene Baiap2)?
The log2 fold-change was 0.55.

And the log2 fold-change ([1]; gene Bcl9l)?
The log2 fold-change was 0.57.

And the log2 fold-change ([1]; gene Bhlha15)?
Its log2 fold-change is 2.54.

And the log2 fold-change ([1]; gene C1s2)?
Its log2 fold-change is 6.81.

What about the log2 fold-change ([1]; gene Cabp1) of the same molecule?
Its log2 fold-change is 2.18.

And the log2 fold-change ([1]; gene Cbx6)?
The log2 fold-change was 0.65.

And the log2 fold-change ([1]; gene Cecr2)?
The log2 fold-change was 1.23.

And the log2 fold-change ([1]; gene Cirbp)?
Its log2 fold-change is 0.65.

What about the log2 fold-change ([1]; gene Clca4a) of the same molecule?
Its log2 fold-change is 0.41.

And the log2 fold-change ([1]; gene Col18a1)?
Its log2 fold-change is 0.40.

And the log2 fold-change ([1]; gene Crybg2)?
The log2 fold-change was 0.56.

And the log2 fold-change ([1]; gene Dbp)?
The log2 fold-change was 1.14.

And the log2 fold-change ([1]; gene Derl3)?
The log2 fold-change was 3.02.

What about the log2 fold-change ([1]; gene Dixdc1) of the same molecule?
Its log2 fold-change is 0.49.

What about the log2 fold-change ([1]; gene Dkkl1) of the same molecule?
The log2 fold-change was 4.99.

And the log2 fold-change ([1]; gene Dnase2b)?
The log2 fold-change was 6.74.

What about the log2 fold-change ([1]; gene Doxl2) of the same molecule?
The log2 fold-change was 0.01.

And the log2 fold-change ([1]; gene Epop)?
The log2 fold-change was 1.75.

What about the log2 fold-change ([1]; gene Fam214a) of the same molecule?
The log2 fold-change was 0.49.

What about the log2 fold-change ([1]; gene Fbf1) of the same molecule?
The log2 fold-change was 0.51.

And the log2 fold-change ([1]; gene Fgl1)?
Its log2 fold-change is 3.75.

And the log2 fold-change ([1]; gene Gdf7)?
Its log2 fold-change is 2.66.

And the log2 fold-change ([1]; gene Gdf10)?
The log2 fold-change was 0.91.

And the log2 fold-change ([1]; gene Gm973)?
Its log2 fold-change is 1.71.

What about the log2 fold-change ([1]; gene Gprc5c) of the same molecule?
The log2 fold-change was 2.14.

What about the log2 fold-change ([1]; gene Gsdma) of the same molecule?
The log2 fold-change was 3.93.

What about the log2 fold-change ([1]; gene Gspt2) of the same molecule?
Its log2 fold-change is 1.14.

What about the log2 fold-change ([1]; gene Hdac7) of the same molecule?
The log2 fold-change was 0.63.

What about the log2 fold-change ([1]; gene Hoxd9) of the same molecule?
Its log2 fold-change is 1.18.

What about the log2 fold-change ([1]; gene Igfbp5) of the same molecule?
Its log2 fold-change is 0.78.

What about the log2 fold-change ([1]; gene Impdh1) of the same molecule?
Its log2 fold-change is 0.53.

What about the log2 fold-change ([1]; gene Islr) of the same molecule?
The log2 fold-change was 0.52.

And the log2 fold-change ([1]; gene Itpripl2)?
Its log2 fold-change is 0.42.

And the log2 fold-change ([1]; gene Jag2)?
Its log2 fold-change is 0.92.

And the log2 fold-change ([1]; gene Kdm6b)?
Its log2 fold-change is 0.57.

What about the log2 fold-change ([1]; gene Krt14) of the same molecule?
The log2 fold-change was 2.57.

What about the log2 fold-change ([1]; gene Lamc1) of the same molecule?
The log2 fold-change was 0.37.

And the log2 fold-change ([1]; gene Lrrc75b)?
Its log2 fold-change is 2.59.

And the log2 fold-change ([1]; gene Man2a2)?
Its log2 fold-change is 0.35.

And the log2 fold-change ([1]; gene Masp1)?
The log2 fold-change was 1.38.

And the log2 fold-change ([1]; gene Mns1)?
Its log2 fold-change is 1.12.

And the log2 fold-change ([1]; gene Mtss2)?
Its log2 fold-change is 0.61.

What about the log2 fold-change ([1]; gene Mxra8) of the same molecule?
Its log2 fold-change is 0.45.

What about the log2 fold-change ([1]; gene Nkx3-1) of the same molecule?
Its log2 fold-change is 0.01.

And the log2 fold-change ([1]; gene Npr1)?
Its log2 fold-change is 0.99.

And the log2 fold-change ([1]; gene Nr1d1)?
The log2 fold-change was 0.81.

What about the log2 fold-change ([1]; gene Nucb2) of the same molecule?
Its log2 fold-change is 3.53.

And the log2 fold-change ([1]; gene Pacsin3)?
The log2 fold-change was 0.87.

What about the log2 fold-change ([1]; gene Panct2) of the same molecule?
Its log2 fold-change is 1.72.

What about the log2 fold-change ([1]; gene Pate4) of the same molecule?
The log2 fold-change was 7.55.

What about the log2 fold-change ([1]; gene Pate9) of the same molecule?
The log2 fold-change was 0.01.

And the log2 fold-change ([1]; gene Pate14)?
The log2 fold-change was 6.47.

What about the log2 fold-change ([1]; gene Per2) of the same molecule?
The log2 fold-change was 0.67.

What about the log2 fold-change ([1]; gene Pgm5) of the same molecule?
Its log2 fold-change is 0.29.

What about the log2 fold-change ([1]; gene Pik3ip1) of the same molecule?
The log2 fold-change was 1.04.

And the log2 fold-change ([1]; gene Pitpnm3)?
Its log2 fold-change is 0.67.

What about the log2 fold-change ([1]; gene Plau) of the same molecule?
Its log2 fold-change is 0.93.

What about the log2 fold-change ([1]; gene Pou3f3) of the same molecule?
Its log2 fold-change is 1.18.

And the log2 fold-change ([1]; gene Prrc2a)?
Its log2 fold-change is 0.49.

And the log2 fold-change ([1]; gene Ptges)?
Its log2 fold-change is 1.14.

And the log2 fold-change ([1]; gene Rapgef3)?
Its log2 fold-change is 0.54.

And the log2 fold-change ([1]; gene Rbms3)?
Its log2 fold-change is 0.45.

What about the log2 fold-change ([1]; gene Rcn1) of the same molecule?
Its log2 fold-change is 2.72.

And the log2 fold-change ([1]; gene Rec8)?
Its log2 fold-change is 1.38.

What about the log2 fold-change ([1]; gene Rgs7bp) of the same molecule?
The log2 fold-change was 0.57.

What about the log2 fold-change ([1]; gene Rhobtb3) of the same molecule?
Its log2 fold-change is 0.86.

What about the log2 fold-change ([1]; gene Serpine2) of the same molecule?
The log2 fold-change was 2.50.

And the log2 fold-change ([1]; gene Serpinf1)?
Its log2 fold-change is 0.82.

What about the log2 fold-change ([1]; gene Shroom1) of the same molecule?
The log2 fold-change was 2.33.

What about the log2 fold-change ([1]; gene Slc4a8) of the same molecule?
The log2 fold-change was 1.04.

And the log2 fold-change ([1]; gene Slc23a1)?
Its log2 fold-change is 1.80.

What about the log2 fold-change ([1]; gene Sp8) of the same molecule?
The log2 fold-change was 2.57.

And the log2 fold-change ([1]; gene Spinkl)?
Its log2 fold-change is 7.58.

What about the log2 fold-change ([1]; gene Spock2) of the same molecule?
The log2 fold-change was 0.54.

What about the log2 fold-change ([1]; gene Sptb) of the same molecule?
Its log2 fold-change is 0.85.

What about the log2 fold-change ([1]; gene Stard5) of the same molecule?
Its log2 fold-change is 0.43.

What about the log2 fold-change ([1]; gene Sva) of the same molecule?
The log2 fold-change was 6.86.

What about the log2 fold-change ([1]; gene Syvn1) of the same molecule?
The log2 fold-change was 0.58.

And the log2 fold-change ([1]; gene Tgfbr3)?
The log2 fold-change was 0.43.

And the log2 fold-change ([1]; gene Tgm4)?
The log2 fold-change was 9.55.

What about the log2 fold-change ([1]; gene Tmem44) of the same molecule?
Its log2 fold-change is 0.56.

And the log2 fold-change ([1]; gene Tns1)?
The log2 fold-change was 0.44.

What about the log2 fold-change ([1]; gene Uox) of the same molecule?
The log2 fold-change was 2.40.

And the log2 fold-change ([1]; gene Upk1b)?
Its log2 fold-change is 2.61.

What about the log2 fold-change ([1]; gene Vat1) of the same molecule?
The log2 fold-change was 0.64.

What about the log2 fold-change ([1]; gene Vwa1) of the same molecule?
Its log2 fold-change is 0.64.

And the log2 fold-change ([1]; gene Zbtb4)?
Its log2 fold-change is 0.37.

What about the log2 fold-change ([1]; gene Zbtb16) of the same molecule?
Its log2 fold-change is 1.21.

And the log2 fold-change ([1]; gene Zfhx3)?
Its log2 fold-change is 0.54.

And the “input N-methylserotonin remaining intact/unmodified” value [2]?
The value was 97±2%.

Source: patent US20250345370A1, “MICROBIAL LIBERATION OF N-METHYLSEROTONIN FROM ORANGE FIBER” (Washington University, priority 2022, published 2025)
